Results taken from PMC8979514 (Journal of Enzyme Inhibition and Medicinal Chemistry, 2022).
Read-outs that look alike come from different tables or passages of the source.

Key:
[1] = target: T1, Acetylcholinesterase (eeAChE, E.C. 3.1.1.7) (Electrophorus electricus, UniProt O42275); experiment: biochemical; assay type: biochemical, electric eel; details: for IC50: eeAChE; for Selectivity IC50(eeAChE)/ IC50(BChE): ratio of IC50 values
T1 construct: purchased Sigma Aldrich
Procedure: (§1) [33] Inhibitory activity was tested at room temperature on 96-well plate using Ellman’s method. Lyophilised powders of AChE and BChE were dissolved in phosphate buffer (pH 7.5, 0.1 M) with 1% BSA.
(§2) Each well was filled to a total volume of 330 µL. The content inculded 285 µL of phosphate buffer, 5 µL 2 units/mL of eeAChE/BChE, 10 µL 0.01 M of DTNB, 10 µl of tested compound (for the control wells 10 µL of the phosphate buffer instead of tested compound) and 20 µL (7.5 mM) ATCh/BTCh. The hydrolysis of ATCh/BTCh was initiated by adding it to the well directly before the measurement. The absorbance was recorded at 1 min intervals for 8 min in total. The percent of inhibition was calculated by nonlinear regression analysis of the response–concentration (log) curve as a percentage of the reaction rate of the tested compounds over the control. Data analysis was performed by using GraphPad Prism 5.0 Software to give the IC50 values. The experiment was carried out in triplicate.

[2] = target: T2, butyrylcholinesterase (BChE, E.C. 3.1.1.8) (Equus caballus, UniProt P81908); experiment: biochemical; parameters: species or system equine serum; details: for IC50: BChE from equine serum
T2 construct: purchased Sigma Aldrich
Procedure: as §1, §2

in vitro [3] = assay type: cell-based, human; details: human; MTT, 24 h incubation; read-out: Cytotoxicity on HepG2 cells IC50
Procedure: (§3) Human neuroblastoma SH-SY5Y and human liver hepatocellular HepG2 cell lines were purchased from the American Type Culture Collections (ATCC). SH-SY5Y cells were cultured in a Dulbecco’s Modified Eagle Medium (DMEM) supplemented with Ham F12 medium (ratio 1:1), whereas HepG2 cells in Eagle’s Minimum Essential Medium (EMEM). Additionally, all culture medium was supplemented with 10% foetal bovine serum (FBS), streptomycin (100 µg/mL) and penicillin (100 U/mL). The cells were seeded into flasks containing supplemented medium and maintained in a humidified atmosphere of 5% CO2 and 95% air at 37 °C. The cell viability assay was performed in confluence of the cells in serum free medium (without FBS) was 80–90%.
(§4) […]. SH-SY5Y cells and HepG2 cells were seeded on 96-well plate with a density of 27–29 × 10^3 cells/well and 12–14 × 10^3/well respectively. […]. The DMSO concentration of every well in final dilutions was equal to or less than 0.1%. After incubation with compounds, MTT was added and 2 h later, the absorbance was measured at 492 nm. The result was expressed as the percentage of control cells (cultured in serum-free medium containing 0.1% of DMSO) which was set to 100%. The MTT test was performed in three independent replications. Data analysis was performed by using GraphPad Prism 5.0 Software.
(§5) . HepG2 is a commonly used in vitro model for the investigation of hepatocytotoxic effect of xenobiotics [40]^,[41]. In our study, we evaluated the toxicity of our new analogs against […]. […]

in vitro [4] = assay type: cell-based, human; details: human, 24 h incubation, MTT, mean ± SD, read-out: Cells viability of SH-SY5Y cell line (% of control)
Procedure: as §3, §4
(§6) SH-SY5Y a standard cell line used for determining neurocytotoxic effect of potential drug. Moreover it is well-established in vitro model of neurodegenerative disorders. […].

SH-SY5Y cells = experiment: in vitro; assay type: cell-based, human; details: 100 µM, 24 h incubation, MTT, mean ± SD
Procedure: as §3, §4, §6

HepG2 cells = experiment: in vitro; assay type: cell-based, human; details: HepG2 cells
Procedure: as §3, §4, §5

[5] = IC50 AChE, Ellman's method, phosphate buffer pH 7.5, room temperature
[6] = pIC50 ± S.E.M. AChE, value in brackets under the IC50
[7] = IC50 BChE, Ellman's method, phosphate buffer pH 7.5, room temperature
[8] = pIC50 ± S.E.M. BChE, value in brackets under the IC50
[9] = Ellman's method, phosphate buffer pH 7.5, room temperature, read-out: IC50 AChE
[10] = value in brackets under the IC50, read-out: pIC50 ± S.E.M. AChE (converted)
[11] = Ellman's method, phosphate buffer pH 7.5, room temperature, read-out: IC50 BChE
[12] = value in brackets under the IC50, read-out: pIC50 ± S.E.M. BChE (converted)
[13] = from IC50 values, versus tacrine

T2 sequence (P81908 whole entry): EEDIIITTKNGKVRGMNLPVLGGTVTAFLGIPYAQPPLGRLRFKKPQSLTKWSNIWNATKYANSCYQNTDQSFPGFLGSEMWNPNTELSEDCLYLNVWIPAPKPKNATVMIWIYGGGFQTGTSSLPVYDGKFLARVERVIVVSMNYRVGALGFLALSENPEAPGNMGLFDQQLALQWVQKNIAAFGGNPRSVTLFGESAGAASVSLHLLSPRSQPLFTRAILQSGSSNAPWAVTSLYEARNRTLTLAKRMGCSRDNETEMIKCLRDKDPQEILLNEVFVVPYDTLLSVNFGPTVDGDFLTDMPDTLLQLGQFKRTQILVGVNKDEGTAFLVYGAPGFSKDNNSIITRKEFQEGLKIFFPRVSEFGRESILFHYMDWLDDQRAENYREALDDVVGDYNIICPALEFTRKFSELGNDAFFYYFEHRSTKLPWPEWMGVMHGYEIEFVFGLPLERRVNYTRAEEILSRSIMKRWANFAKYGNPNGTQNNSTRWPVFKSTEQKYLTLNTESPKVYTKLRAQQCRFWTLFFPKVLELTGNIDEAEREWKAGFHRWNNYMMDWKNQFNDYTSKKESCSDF
T1 sequence (O42275 24-633): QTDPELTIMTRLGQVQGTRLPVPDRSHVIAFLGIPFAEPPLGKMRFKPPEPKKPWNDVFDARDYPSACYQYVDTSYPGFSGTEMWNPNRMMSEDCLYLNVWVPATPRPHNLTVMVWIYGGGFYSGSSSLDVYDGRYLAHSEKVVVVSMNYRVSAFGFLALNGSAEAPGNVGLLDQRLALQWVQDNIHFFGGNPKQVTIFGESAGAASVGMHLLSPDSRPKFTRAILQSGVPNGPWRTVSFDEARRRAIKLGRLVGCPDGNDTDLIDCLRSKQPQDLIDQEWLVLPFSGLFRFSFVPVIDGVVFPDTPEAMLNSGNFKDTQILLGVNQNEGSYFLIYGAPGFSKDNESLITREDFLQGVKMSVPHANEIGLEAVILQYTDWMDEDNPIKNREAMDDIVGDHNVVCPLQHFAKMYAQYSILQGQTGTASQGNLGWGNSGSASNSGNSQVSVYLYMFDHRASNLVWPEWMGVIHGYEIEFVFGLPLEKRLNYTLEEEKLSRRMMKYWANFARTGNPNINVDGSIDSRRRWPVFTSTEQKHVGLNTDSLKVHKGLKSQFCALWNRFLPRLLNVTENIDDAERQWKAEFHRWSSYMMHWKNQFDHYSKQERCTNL

Compound | IC50 [1, 5] [nM] | IC50 [1, 6] [nM] | Selectivity IC50(eeAChE)/ IC50(BChE) [1] | IC50 [2, 7] [nM] | IC50 [2, 8] [nM] | IC50 at 24 h (in vitro [3]) [nM] | viability at 24 h, 12.5 µM (in vitro [4]) [%] | viability at 24 h, 50 µM (in vitro [4]) [%] | viability at 24 h, 100 µM (in vitro [4]) [%] | IC50 [1, 9] [nM] | IC50 [1, 10] [nM] | IC50 [2, 11] [nM] | IC50 [2, 12] [nM] | IC50 (in vitro [3]) [nM] | viability at 12.5 µM (in vitro [4]) [%] | viability at 50 µM (in vitro [4]) [%] | viability at 100 µM (in vitro [4]) [%] | further results
CCOP(=O)(NCCCCCCNc1c2c(nc3ccccc13)CCCC2)OCC [Compound 6, Diethyl(6-((1,2,3,4-tetrahydroacridin-9-yl)amino)hexyl)phosphoramidate] | 32.6 | 32.6 | 4.82 | 6.75 | 6.76 | 140000 | 74.3 ± 4.9 | 71.7 ± 7.2 | 67.5 ± 9 | – | – | – | – | – | – | – | – | –
O=P(NCCCCCCNc1c2c(nc3ccccc13)CCCC2)(Oc1ccccc1)Oc1ccccc1 [Compound 7, Diphenyl(6-((1,2,3,4-tetrahydroacridin-9-yl)amino)hexyl)phosphoramidate] | – | – | 3.04 | – | – | – | – | – | – | 125 | 125 | 41.1 | 41.1 | 14600 | 47.4 ± 1.2 | 41.3 ± 1.5 | 30.1 ± 5 | –
CCOP(=O)(NCCCCCCCCNc1c2c(nc3ccccc13)CCCC2)OCC [Compound 8, Diethyl(8-((1,2,3,4-tetrahydroacridin-9-yl)amino)octyl)phosphoramidate] | 6.11 | 6.11 | 0.48 | 12.9 | 12.9 | 23700 | 76.7 ± 5.8 | 51.6 ± 5.4 | 52.2 ± 1 | – | – | – | – | – | – | – | – | fold more potent than tacrine against AChE [1, 13]: 6 fold
CCCCOP(=O)(NCCCCCCCCNc1c2c(nc3ccccc13)CCCC2)OCCCC [Compound 9, Dibutyl(8-((1,2,3,4-tetrahydroacridin-9-yl)amino)octyl)phosphoramidate] | 8.18 | 8.18 | 0.2 | 41.5 | 41.5 | 43300 | 77.5 ± 13.5 | 55.7 ± 11.5 | 54.6 ± 8.4 | – | – | – | – | – | – | – | – | –
O=P(NCCCCCCCCNc1c2c(nc3ccccc13)CCCC2)(Oc1ccccc1)Oc1ccccc1 [Compound 10, Diphenyl(8-((1,2,3,4-tetrahydroacridin-9-yl)amino)octyl)phosphoramidate] | – | – | 0.24 | – | – | – | – | – | – | 44.2 | 44.3 | 188 | 188 | 7150 | 80.1 ± 16.8 | 63.7 ± 5.7 | 48.1 ± 8.1 | –
CCOP(=O)(NCCCCCCCCCCCCNc1c2c(nc3ccccc13)CCCC2)OCC [Compound 11, Diethyl(12-((1,2,3,4-tetrahydroacridin-9-yl)amino)dodecyl)phosphoramidate] | – | – | 0.51 | – | – | – | – | – | – | 33.3 | 33.3 | 65.5 | 65.5 | 50 | 35.4 ± 4.6 | 35.5 ± 4.1 | 31.1 ± 6.4 | –
CCCCOP(=O)(NCCCCCCCCCCCCNc1c2c(nc3ccccc13)CCCC2)OCCCC [Compound 12, Dibutyl(12-((1,2,3,4-tetrahydroacridin-9-yl)amino)dodecyl)phosphoramidate] | 16.3 | 16.3 | 0.27 | 61.2 | 61.2 | 20800 | 69.3 ± 3.7 | 52.1 ± 3.1 | 53.5 ± 5.8 | – | – | – | – | – | – | – | – | –
O=P(NCCCCCCCCCCCCNc1c2c(nc3ccccc13)CCCC2)(Oc1ccccc1)Oc1ccccc1 [Compound 13, Diphenyl(12-((1,2,3,4-tetrahydroacridin-9-yl)amino)dodecyl)phosphoramidate] | 9.96 | 9.95 | 5.06 | 1.97 | 1.97 | – | 40.4 ± 7.6 | 38.4 ± 7.6 | 38 ± 3.8 | – | – | – | – | – | – | – | – | fold more potent than tacrine against BChE [2, 13]: 12 fold
CCOP(=O)(OCC)OCCCNc1c2c(nc3ccccc13)CCCC2 [Compound 16, Diethyl(3-((1,2,3,4-tetrahydroacridin-9-yl)amino)propyl)phosphate] | – | – | 14.36 | – | – | – | – | – | – | 246 | 245 | 17.1 | 17.1 | 114000 | 88.1 ± 7.8 | 80 ± 7.7 | 83.5 | Cells viability of SH-SY5Y cell line (% of control) (SH-SY5Y cells): 83.47 ± 8.6 % of control
CCCCOP(=O)(OCCCC)OCCCNc1c2c(nc3ccccc13)CCCC2 [Compound 17, Dibutyl(3-((1,2,3,4-tetrahydroacridin-9-yl)amino)propyl)phosphate] | 110 | 110 | 3.78 | 29.1 | 29.1 | 72300 | 94.4 ± 5.1 | 67.7 ± 14.7 | 63.2 ± 12.2 | – | – | – | – | – | – | – | – | –
O=P(OCCCNc1c2c(nc3ccccc13)CCCC2)(Oc1ccccc1)Oc1ccccc1 [Compound 18, Diphenyl(3-((1,2,3,4-tetrahydroacridin-9-yl)amino)propyl)phosphate] | 58.6 | 58.6 | 1.55 | 37.7 | – | 53800 | 79.5 ± 7.4 | 71.2 ± 20.5 | 59 ± 20.3 | – | – | – | – | – | – | – | – | –
CCOP(=O)(OCC)OCCNCCNc1c2c(nc3ccccc13)CCCC2 [Compound 19, Diethyl(2-((2-((1,2,3,4-tetrahydroacridin-9-yl)amino)ethyl)amino)ethyl)phosphate] | – | – | 6.08 | – | – | – | – | – | – | 677 | 676 | 111 | 112 | > 600000 | 85.5 ± 12.6 | 82.6 ± 3.2 | 81.1 | hepatocytotoxicity in MTT assay (in words) (HepG2 cells): lack of hepatocytotoxicity; Cells viability of SH-SY5Y cell line (% of control) (SH-SY5Y cells): 81.12 ± 5.0 % of control
CCCCOP(=O)(OCCCC)OCCNCCNc1c2c(nc3ccccc13)CCCC2 [Compound 20, Dibutyl(2-((2-((1,2,3,4-tetrahydroacridin-9-yl)amino)ethyl)amino)ethyl)phosphate] | 81.6 | 81.5 | 0.44 | 186 | – | 134000 | 78.9 ± 8.6 | 79.7 ± 1.1 | 68.6 ± 14.5 | – | – | – | – | – | – | – | – | –
O=P(OCCNCCNc1c2c(nc3ccccc13)CCCC2)(Oc1ccccc1)Oc1ccccc1 [Compound 21, Diphenyl(2-((2-((1,2,3,4-tetrahydroacridin-9-yl)amino)ethyl)amino)ethyl)phosphate] | 501 | 501 | 12.22 | 41 | 41 | – | 52.3 ± 5 | 42.7 ± 6.4 | 30.7 ± 1.5 | – | – | – | – | – | – | – | – | –
